According to the NIST ThermoML archive (doi:10.1021/acs.jced.6b00460):

Test: xn = mol fraction of the nth substance listed
Details: 101 kPa, Liquid; for speed of sound: Sing-around technique in a fixed-path interferometer; for mass density: Vibrating tube method

CCCCCCCC[n+]1ccccc1.[Cl-] [N-octylpyridinium chloride] + O
Details	mass density, 308.15 K [kg/m3]	mass density, 318.15 K [kg/m3]	speed of sound, 308.15 K [m/s]	speed of sound, 318.15 K [m/s]
x2 = 0.0625	1128.68	1122.77	1483.2	1452.1
x2 = 0.1156	1128.57	1122.56	1484.1	1453.2
x2 = 0.2085	1128.29	1122.18	1485.3	1456.7
x2 = 0.2545	1128.08	1121.95	1486.2	1458.4
x2 = 0.306	1127.76	1121.63	1488	1461.8
x2 = 0.4127	1126.71	1120.54	1491.7	1464.8
x2 = 0.4534	1126.09	1119.9	1493.7	1466.1
x2 = 0.4995	1125.19	1118.95	1495	1469.4
x2 = 0.6103	1121.68	1115.24	1499.8	1473.8
x2 = 0.6508	1119.68	1113.12	1501.8	1477.2
x2 = 0.6962	1116.7	1110.01	1504.9	1481.8
x2 = 0.7542	1111.3	1104.41	1507.1	1487.1
x2 = 0.8086	1103.65	1096.63	1509.4	1493.7
x2 = 0.8512	1094.75	1087.7	1511.3	1497.9
x2 = 0.9009	1078.75	1071.93	1513.2	1505.5
x2 = 0.9485	1052.47	1046.38	1515.5	1515.2

CCCCCCCC[n+]1ccccc1.[Br-] [1-octylpyridinium bromide] + O
Details	mass density, 308.15 K [kg/m3]	mass density, 318.15 K [kg/m3]	speed of sound, 308.15 K [m/s]	speed of sound, 318.15 K [m/s]
x2 = 0.0524	1167.92	1161.5	1507.5	1479.5
x2 = 0.1125	1167.75	1161.26	1508.2	1481.4
x2 = 0.2085	1167.44	1160.87	1509.1	1483.4
x2 = 0.2612	1167.11	1160.51	1509.6	1485
x2 = 0.3065	1166.66	1160.04	1510.1	1486.3
x2 = 0.4098	1164.79	1158.11	1511.2	1489.1
x2 = 0.4611	1163.24	1156.52	1511.8	1490.4
x2 = 0.5075	1161.35	1154.59	1512.2	1492
x2 = 0.6091	1155.07	1148.2	1513.8	1494.8
x2 = 0.6541	1151.03	1144.1	1514.5	1497.2
x2 = 0.7031	1145.4	1138.43	1515.1	1502.2
x2 = 0.7485	1138.7	1131.69	1516	1506.7
x2 = 0.8065	1127.15	1120.15	1516.8	1512.5
x2 = 0.8545	1113.64	1106.77	1517.5	1518
x2 = 0.9065	1091.9	1085.37	1518.2	1523.5
x2 = 0.9503	1062.05	1056.24	1518.8	1529.3
